Experimental data: PubChem BioAssay AID330 (DTP/NCI, 2004)
“And” between values parts separate entries of the source, which are not always exact repeats. Equal values may be shown once. Inconclusive results and toxic doses are left out. Peptide text beside a SMILES is read from it.

Test system: P388 leukemia ip, CD2F1 mice, survival T/C
Experiment: NCI In Vivo Anticancer Drug Screen. Data for tumor model P388 Leukemia (intraperitoneal) in CD2F1 (CDF1) mice
Details: endpoint: median survival time, higher = longer survival
How it was run: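 Mice carrying the transplanted tumor received test compound or vehicle. Survival was recorded in each group, and the value is the treated-group measurement divided by that of the vehicle-treated control group.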

[1] = dose: 25.0 mg/kg/injection, schedule: Q01DX005 (ip), vehicle: Klucel (hydroxypropylcellulose) (HPC)
[2] = dose: 50.0 mg/kg/injection, schedule: Q01DX005 (ip), vehicle: Klucel (hydroxypropylcellulose) (HPC)
[3] = dose: 100.0 mg/kg/injection, schedule: Q01DX005 (ip), vehicle: Klucel (hydroxypropylcellulose) (HPC)
[4] = dose: 60.0 mg/kg/injection, schedule: Q01DX005 (ip), vehicle: saline with Tween-80
[5] = dose: 120.0 mg/kg/injection, schedule: Q01DX005 (ip), vehicle: saline with Tween-80
[6] = dose: 240.0 mg/kg/injection, schedule: Q01DX005 (ip), vehicle: saline with Tween-80
[7] = dose: 100.0 mg/kg/injection, schedule: Q01DX009 (ip), vehicle: saline with Tween-80
[8] = dose: 200.0 mg/kg/injection, schedule: Q01DX009 (ip), vehicle: saline with Tween-80
[9] = dose: 50.0 mg/kg/injection, schedule: Q01DX005 (ip), vehicle: saline with Tween-80
[10] = dose: 100.0 mg/kg/injection, schedule: Q01DX005 (ip), vehicle: saline with Tween-80
[11] = dose: 200.0 mg/kg/injection, schedule: Q01DX005 (ip), vehicle: saline with Tween-80
[12] = dose: 50.0 mg/kg/injection, schedule: Q01DX009 (ip), vehicle: saline with Tween-80
[13] = dose: 12.5 mg/kg/injection, schedule: Q01DX009 (ip), vehicle: Klucel (hydroxypropylcellulose) (HPC)
[14] = dose: 25.0 mg/kg/injection, schedule: Q01DX009 (ip), vehicle: Klucel (hydroxypropylcellulose) (HPC)
[15] = dose: 50.0 mg/kg/injection, schedule: Q01DX009 (ip), vehicle: Klucel (hydroxypropylcellulose) (HPC)
[16] = dose: 100.0 mg/kg/injection, schedule: Q01DX009 (ip), vehicle: Klucel (hydroxypropylcellulose) (HPC)
[17] = dose: 200.0 mg/kg/injection, schedule: Q01DX009 (ip), vehicle: Klucel (hydroxypropylcellulose) (HPC)
[18] = dose: 50.0 mg/kg/injection, schedule: Q01DX009 (ip), vehicle: saline
[19] = dose: 100.0 mg/kg/injection, schedule: Q01DX009 (ip), vehicle: saline
[20] = dose: 200.0 mg/kg/injection, schedule: Q01DX009 (ip), vehicle: saline
[21] = dose: 25.0 mg/kg/injection, schedule: Q01DX009 (ip), vehicle: saline
[22] = dose: 25.0 mg/kg/injection, schedule: Q01DX005 (ip), vehicle: saline with Tween-80
[23] = dose: 6.25 mg/kg/injection, schedule: Q01DX005 (ip), vehicle: Klucel (hydroxypropylcellulose) (HPC)
[24] = dose: 12.5 mg/kg/injection, schedule: Q01DX005 (ip), vehicle: Klucel (hydroxypropylcellulose) (HPC)
[25] = dose: 60.0 mg/kg/injection, schedule: Q01DX005 (ip), vehicle: saline
[26] = dose: 120.0 mg/kg/injection, schedule: Q01DX005 (ip), vehicle: saline
[27] = dose: 240.0 mg/kg/injection, schedule: Q01DX005 (ip), vehicle: saline

O=C1C=CC(=Nc2cccc3c(N=C4C=CC(=O)O4)cccc23)O1
T/C [1]: 107 % of control | T/C [2]: 111 % of control | T/C [3]: 115 % of control

COC(=O)C1(c2ccccc2)N=C(c2ccc(C)cc2)ON1c1ccccc1 (stereo not given)
T/C [4]: 107 % of control | T/C [5]: 95 % of control | T/C [6]: 92 % of control

CC1=CSCC(=O)N1
T/C [7]: 104 % of control | T/C [8]: 95 % of control

S=c1nc[nH]c2cc3cn[nH]c3cc12
T/C [9]: 94 % of control | T/C [10]: 96 % of control | T/C [11]: 92 % of control

CNC(=O)Nc1nncs1
T/C [4]: 106 % of control | T/C [5]: 104 % of control | T/C [6]: 106 % of control

COc1ccc2c(c1)CCCN2
T/C (dose: 25.0 mg/kg/injection, schedule: Q01DX009 (ip), vehicle: saline with Tween-80): 105 % of control and 108 % of control | T/C [12]: 103 % of control and 108 % of control | T/C [7]: 117 % of control

NC(=S)N/N=C/c1c(-c2ccc(Cl)cc2)nc2n1CCS2
T/C (dose: 100.0 mg/kg/injection, schedule: Q01DX001 (ip), vehicle: Klucel (hydroxypropylcellulose) (HPC)): 97 % of control | T/C (dose: 200.0 mg/kg/injection, schedule: Q01DX001 (ip), vehicle: Klucel (hydroxypropylcellulose) (HPC)): 100 % of control | T/C (dose: 400.0 mg/kg/injection, schedule: Q01DX001 (ip), vehicle: Klucel (hydroxypropylcellulose) (HPC)): 97 % of control

Cc1[nH]c2ccc(N(C)C)cc2c(=O)c1C
T/C [13]: 96 % of control | T/C [14]: 104 % of control and 107 % of control | T/C [15]: 100 % of control and 103 % of control and 123 % of control | T/C [16]: 102 % of control and 103 % of control and 107 % of control | T/C [17]: 112 % of control

O/N=C1\CCC2CCCCC2C1 (stereo not given)
T/C [18]: 103 % of control | T/C [19]: 103 % of control | T/C [20]: 104 % of control

c1ccc(Cn2cccc/c2=N/C(=NC2CCCCC2)NC2CCCCC2)cc1
T/C (dose: 1.56 mg/kg/injection, schedule: Q01DX001 (ip), vehicle: Klucel (hydroxypropylcellulose) (HPC)): 105 % of control | T/C (dose: 3.12 mg/kg/injection, schedule: Q01DX001 (ip), vehicle: Klucel (hydroxypropylcellulose) (HPC)): 99 % of control | T/C (dose: 6.25 mg/kg/injection, schedule: Q01DX001 (ip), vehicle: Klucel (hydroxypropylcellulose) (HPC)): 99 % of control | T/C (dose: 25.0 mg/kg/injection, schedule: Q01DX001 (ip), vehicle: Klucel (hydroxypropylcellulose) (HPC)): 98 % of control

COC1CC(C)C(OC)c2cc(O)cc(c2O)NC(=O)/C(C)=C/C=C\C(C)C(OC(N)=O)/C(C)=C\C(C)C1OC (stereo not given)
T/C (dose: 0.63 mg/kg/injection, schedule: Q01DX009 (ip), vehicle: saline + alcohol): 116 % of control | T/C (dose: 1.25 mg/kg/injection, schedule: Q01DX009 (sc), vehicle: saline + alcohol): 99 % of control | T/C (dose: 2.5 mg/kg/injection, schedule: Q01DX009 (sc), vehicle: saline + alcohol): 93 % of control | T/C (dose: 5.0 mg/kg/injection, schedule: Q01DX009 (sc), vehicle: saline + Tween-80 + alcohol): 94 % of control | T/C (dose: 5.0 mg/kg/injection, schedule: Q01DX009 (sc), vehicle: saline + alcohol): 98 % of control | T/C (dose: 10.0 mg/kg/injection, schedule: Q01DX009 (sc), vehicle: saline + alcohol): 90 % of control | T/C (dose: 20.0 mg/kg/injection, schedule: Q01DX009 (ip), vehicle: saline + alcohol): 160 % of control | T/C (dose: 20.0 mg/kg/injection, schedule: Q01DX009 (oral), vehicle: saline + Tween-80 + alcohol): 92 % of control | T/C (dose: 40.0 mg/kg/injection, schedule: Q01DX009 (oral), vehicle: saline + Tween-80 + alcohol): 93 % of control | T/C (dose: 80.0 mg/kg/injection, schedule: Q01DX009 (oral), vehicle: saline + Tween-80 + alcohol): 92 % of control | T/C (dose: 160.0 mg/kg/injection, schedule: Q01DX009 (oral), vehicle: saline + Tween-80 + alcohol): 94 % of control | T/C (dose: 240.0 mg/kg/injection, schedule: Q01DX009 (oral), vehicle: saline + Tween-80 + alcohol): 103 % of control

NNC(=O)CC(N)C(=O)O (stereo not given)
T/C [21]: 100 % of control | T/C [12]: 110 % of control | T/C [18]: 105 % of control and 122 % of control | T/C [7]: 108 % of control | T/C [19]: 109 % of control and 122 % of control | T/C [8]: 117 % of control | T/C [20]: 116 % of control | T/C (dose: 400.0 mg/kg/injection, schedule: Q01DX009 (ip), vehicle: saline): 107 % of control

COc1cccc(/C=C2/SC(=S)N(Cc3ccco3)C2=O)c1OC
T/C (dose: 12.5 mg/kg/injection, schedule: Q01DX005 (ip), vehicle: saline with Tween-80): 100 % of control | T/C [22]: 90 % of control | T/C [9]: 90 % of control and 91 % of control

c1ccc2c(c1)C1CCC2[n+]2ccccc21 (stereo not given)
T/C [23]: 108 % of control | T/C [24]: 106 % of control | T/C [1]: 110 % of control

CS\C(N)=N/N=C/C(C)=N/N=C(/N)SC
T/C (dose: 50.0 mg/kg/injection, schedule: Q04DX002 (ip), vehicle: saline with Tween-80): 101 % of control | T/C (dose: 100.0 mg/kg/injection, schedule: Q04DX002 (ip), vehicle: saline with Tween-80): 100 % of control | T/C (dose: 200.0 mg/kg/injection, schedule: Q04DX002 (ip), vehicle: saline with Tween-80): 100 % of control

COC(=O)NC1(NC(=O)OC)NC(=O)c2cc(OC)c(OC)cc2N1
T/C [22]: 102 % of control | T/C [9]: 99 % of control | T/C [10]: 98 % of control | T/C [11]: 118 % of control

COC(=O)C1=C(C(=O)OC)C2(c3ccccc3-c3ccccc32)C2C=CC=NN12 (stereo not given)
T/C [2]: 100 % of control | T/C [3]: 103 % of control | T/C (dose: 200.0 mg/kg/injection, schedule: Q01DX005 (ip), vehicle: Klucel (hydroxypropylcellulose) (HPC)): 100 % of control

CCC(C)C(N)C(=O)NC(C(=O)O)C(C)C (stereo not drawn) (H-Ile-Val-OH; configuration not given here)
T/C [25]: 95 % of control | T/C [26]: 103 % of control | T/C [27]: 95 % of control

CCCCCCCN(CCCCCCC)C(=N)c1ccnc2ccccc12
T/C [23]: 101 % of control | T/C [24]: 99 % of control | T/C [1]: 100 % of control

COc1nc(NC2OCC(O)C(O)C2O)c(C=O)c(=O)n1C (stereo not given)
T/C [25]: 100 % of control | T/C [26]: 90 % of control | T/C [27]: 90 % of control

CC1(C)CCCC2(C)OC(=O)C=C12 (stereo not given)
T/C (dose: 3.12 mg/kg/injection, schedule: Q01DX005 (ip), vehicle: distilled water + Tween-80): 105 % of control | T/C (dose: 6.25 mg/kg/injection, schedule: Q01DX005 (ip), vehicle: distilled water + Tween-80): 104 % of control | T/C (dose: 12.5 mg/kg/injection, schedule: Q01DX005 (ip), vehicle: distilled water + Tween-80): 94 % of control

O=C1CS/C(=N\C(=O)Nc2cccc(C(F)(F)F)c2)N1
T/C (dose: 12.5 mg/kg/injection, schedule: Q01DX009 (ip), vehicle: saline): 103 % of control | T/C [21]: 94 % of control | T/C [12]: 87 % of control

CCc1cccc(CC)c1NC(=O)c1ccccc1Br
T/C [4]: 97 % of control | T/C [5]: 96 % of control | T/C [6]: 112 % of control

CN(C)c1ccc(C=NCCCN2CCN(CCCN=Cc3ccc(N(C)C)cc3)CC2)cc1
T/C [13]: 93 % of control | T/C [14]: 99 % of control | T/C [15]: 104 % of control | T/C [16]: 112 % of control | T/C [17]: 105 % of control

N#CN(Cc1ccccc1)Cc1ccccc1.[I][Sn]([c]1ccccc1)([c]1ccccc1)[c]1ccccc1
T/C (dose: 1.5 mg/kg/injection, schedule: Q01DX005 (ip), vehicle: saline with Tween-80): 101 % of control | T/C (dose: 3.0 mg/kg/injection, schedule: Q01DX005 (ip), vehicle: saline with Tween-80): 108 % of control | T/C (dose: 6.0 mg/kg/injection, schedule: Q01DX005 (ip), vehicle: saline with Tween-80): 100 % of control | T/C (dose: 6.25 mg/kg/injection, schedule: Q01DX005 (ip), vehicle: saline with Tween-80): 94 % of control
